{"source": "patent US7785828B1", "about": "(priority 2003, dated 2010)", "key": {"[1]": {"system": "Fusarium graminearum", "format": "cell-based"}, "[2]": {"system": "Septoria tritici", "format": "cell-based"}, "[3]": {"system": "Mycosphaerella fijiensis", "format": "cell-based"}, "[4]": {"system": "Fusarium graminearum", "parameters": "species or system wheat", "conditions": "in vivo"}, "[5]": {"system": "Fusarium graminearum", "format": "cell-based"}, "[6]": {"system": "Septoria tritici", "format": "cell-based", "parameters": "key: + indicates a 1- to 5-fold improvement in activity compared to a reference defensin protein; ++ indicates a >5- to 10-fold improvement; +++ indicates a >10-fold improvement; “0” indicates no activity detected"}, "[7]": {"conditions": "Table 2B (Dm-AMP1 based libraries), improvement compared to reference defensin protein (Rs-AFP2 for Table 2B [sic])"}, "[8]": {"conditions": "Measurement taken at 72 hours after inoculation, fold improvement compared to DmAMP1"}, "[9]": {"conditions": "Measurement taken at 144 hours after inoculation, fold improvement compared to DmAMP1"}}, "note": "Where two headings read alike, the source gives them in different places.", "data": [{"sequence": "NLCERASKTWSGNCGNTKHCDNQCKNWEGAKHGACHVRNGKHKCFCYFNC [L6-28] (Defensin like)", "values": [{"measurement": "Antifungal activity, Fusarium graminearum (improvement compared to DmAMP1)", "setting": "[1]", "value": "+++ (key: + indicating 1- to 5-fold improvement compared to DmAMP1; ++ indicating >5- to 10-fold improvement; +++ indicating >10-fold improvement)"}, {"measurement": "Antifungal activity, Septoria tritici (improvement compared to DmAMP1)", "setting": "[2]", "value": "+ (key: + indicating 1- to 5-fold improvement compared to DmAMP1; ++ indicating >5- to 10-fold improvement; +++ indicating >10-fold improvement)"}, {"measurement": "Antifungal activity, Mycosphaerella fijiensis (improvement compared to DmAMP1)", "setting": "[3]", "value": "+ (key: + indicating 1- to 5-fold improvement compared to DmAMP1; ++ indicating >5- to 10-fold improvement; +++ indicating >10-fold improvement)"}, {"measurement": "disease spread compared to NP or wildtype defensin expression level in the infected plant", "setting": "[4]", "value": "No clear correlation"}]}, {"sequence": "ELCEKASKTWSGNCGNTKHCDTQCKNWEGAKHGACHVRSGKHKCFCYFNC (Defensin like) [L3-135]", "values": [{"measurement": "disease spread compared to NP or wildtype defensin expression level in the infected plant", "setting": "[4]", "value": "clear inverse correlation between expression level and disease spread"}]}, {"sequence": "QKLCQRPSGTWSGVCMNNNACKNQCIRLEKAKHGSCNYVFPAHKCICYFPC (Defensin like) [L2-52]", "values": [{"measurement": "disease spread compared to NP or wildtype defensin expression level in the infected plant", "setting": "[4]", "value": "No clear correlation"}]}, {"sequence": "NLCERASKTWTGNCGNTKHCDNQCRSWEGAKHGACHVRNGKHKCFCYFNC (Defensin like) [L6-75]", "values": [{"measurement": "Activity (1): antifungal activity of the NP against Fusarium graminearium", "setting": "[5]; [7]", "value": "++ (++ indicates a >5- to 10-fold improvement)"}, {"measurement": "Antifungal activity, Fusarium graminearum (improvement compared to DmAMP1)", "setting": "[1]; [8]", "value": "+++ (+++ indicating >10-fold improvement)"}, {"measurement": "Antifungal activity, Septoria tritici (improvement compared to DmAMP1)", "setting": "[2]; [9]", "value": "+++ (+++ indicating >10-fold improvement)"}, {"measurement": "Antifungal activity, Mycosphaerella fijiensis (improvement compared to DmAMP1)", "setting": "[3]; [9]", "value": "+ (+ indicating 1- to 5-fold improvement compared to DmAMP1)"}]}, {"sequence": "QKLCQKPSRTWSGVCGNNNACKNQCIRLEKARHGSCNYVFPAHKCICYFPC (Defensin like) [L2-12]", "values": [{"measurement": "disease spread compared to NP or wildtype defensin expression level in the infected plant", "setting": "[4]", "value": "A protective effect was also seen"}]}, {"sequence": "NLCERASKTWTGNCGNTKHCDNQCKSWEGAKHGACHVRNGKHKCFCYFNC (Defensin like) [L9-33]", "values": [{"measurement": "Activity (1): antifungal activity of the NP against Fusarium graminearium", "setting": "[5]; [7]", "value": "++ (++ indicates a >5- to 10-fold improvement)"}, {"measurement": "Antifungal activity, Fusarium graminearum (improvement compared to DmAMP1)", "setting": "[1]; [8]", "value": "+++ (+++ indicating >10-fold improvement)"}, {"measurement": "Antifungal activity, Septoria tritici (improvement compared to DmAMP1)", "setting": "[2]; [9]", "value": "+++ (+++ indicating >10-fold improvement)"}, {"measurement": "Antifungal activity, Mycosphaerella fijiensis (improvement compared to DmAMP1)", "setting": "[3]; [9]", "value": "++ (++ indicating >5- to 10-fold improvement)"}]}, {"sequence": "QKLCEKPSRTWSGVCGNNNACKNQCIRLEKARHGSCNYRFPAHKCICYVPC (Defensin like) [L1-01]", "values": [{"measurement": "Activity (2): antifungal activity against Septoria tritici", "setting": "[6]", "value": 0}]}, {"sequence": "DGVKLCERASQTWTGHCGNTKHCDKQCKNWEGAKHGACHKRNGKWKCFCYFNC (Defensin like) [L7-432]", "values": [{"measurement": "Activity (1): antifungal activity of the NP against Fusarium graminearium", "setting": "[5]; Table 2C (mixed diversity library), improvement compared to reference defensin protein DmAMP", "value": "+++ (+++ indicates a >10-fold improvement)"}, {"measurement": "Antifungal activity, Fusarium graminearum (improvement compared to DmAMP1)", "setting": "[1]; [8]", "value": "+++ (+++ indicating >10-fold improvement)"}, {"measurement": "Antifungal activity, Septoria tritici (improvement compared to DmAMP1)", "setting": "[2]; [9]", "value": "+ (+ indicating 1- to 5-fold improvement compared to DmAMP1)"}, {"measurement": "Antifungal activity, Mycosphaerella fijiensis (improvement compared to DmAMP1)", "setting": "[3]; [9]", "value": "+++ (+++ indicating >10-fold improvement)"}]}, {"sequence": "NLCERASKTWTGNCGNTKHCDTQCKSWESAKHGACHVRSGKHKCFCYFNC (Defensin like) [L3-64]", "values": [{"measurement": "Activity (1): antifungal activity of the NP against Fusarium graminearium", "setting": "[5]; [7]", "value": "+ (+ indicates a 1- to 5-fold improvement in activity compared to a reference defensin protein)"}, {"measurement": "Antifungal activity, Fusarium graminearum (improvement compared to DmAMP1)", "setting": "[1]; [8]", "value": "+++ (+++ indicating >10-fold improvement)"}, {"measurement": "Antifungal activity, Septoria tritici (improvement compared to DmAMP1)", "setting": "[2]; [9]", "value": "++ (++ indicating >5- to 10-fold improvement)"}, {"measurement": "Antifungal activity, Mycosphaerella fijiensis (improvement compared to DmAMP1)", "setting": "[3]; [9]", "value": "+ (+ indicating 1- to 5-fold improvement compared to DmAMP1)"}]}]}
